From ChEMBL document CHEMBL4346695, “Thiophenol-formaldehyde triazole causes apoptosis induction in ovary cancer cells and prevents tumor growth formation in mice model” (2019)
The source made the active and inactive calls.

Legend:
[1] = system: Caov-4; assay: Growth inhibition of human Caov4 cells incubated for 48 hrs by MTT assay; format: functional, cell-based
[2] = species: Homo sapiens; assay: Growth inhibition of human ES2 cells incubated for 48 hrs by MTT assay; format: functional
[3] = system: Caov-3 cell line; assay: Growth inhibition of human Caov3 cells incubated for 48 hrs by MTT assay; format: functional, cell-based

Measured: growth inhibition (GI)

FC(F)(F)c1ccc(-n2cc(COCc3ccccc3S)nn2)cc1
active: all assays above
